From US20240218009A1, “NOVEL FORMS OF CYCLIC DINUCLEOTIDE COMPOUNDS” (Merck Sharp & Dohme LLC, priority 2021, published 2024)
Read-outs that look alike come from different tables or passages of the source.

Conditions: pH 6.0, approx. 20-30 mg/mL, stirred at ambient conditions for minimum 16 hours, precipitate analysed by XRPD
Experimental: Equilibrium solubility experiments were conducted by mixing Compound A and the solution of interest at a concentration of approximately 20-30 mg/mL (Table 1). The solution of interest contained either 50 mM L-histidine or phosphate buffer (pH: 5.8<x<6.3). Additional Compound A was added until a cloudy solution was maintained. The samples were stirred at ambient conditions for a minimum of 16 hours. At the conclusion of the solubility measurements, solutions were clarified by centrifugation. The wet precipitated material was transferred to a 96-well transmission XRPD sample plate and allowed to dry to room temperature prior to XRPD analysis.
X-ray powder diffraction patterns for the solid phases of Compound A were generated on a Philips Analytical X'Pert PRO X-ray Diffraction System with a high throughput stage. A Cu K-Alpha radiation source was used. […] The experiments were analyzed at ambient conditions.

In the case of Nc1nc2c(ncn2[C@@H]2O[C@@H]3CO[P@@](O)(=S)O[C@H]4[C@H](F)[C@H](n5cnc6c(N)ncnc65)O[C@@H]4CO[P@@](O)(=S)O[C@@H]2[C@@H]3F)c(=O)[nH]1.[Na] [Crystalline, mono-sodium salt, Monosodium salt of 2-amino-9-[(2R,5R,7R,8S,10R,12aR,14R,15S,15aR,16R)-14-(6-amino-9H-purin-9-yl)-15,16-difluoro-2,10-dihydroxy-2,10-disulfidooctahydro-12H-5,8-methanofuro [3,2-1][1,3,6,9,11,2,10]pentaoxa-diphosphacyclotetradecin-7-yl]-1,9-dihydro-6H-purin-6-one], the “Compound A Terminal Phase” value (50 mM L-histidine buffer) is reported as “Form 1” and the “Compound A Terminal Phase” value (50 mM phosphate buffer) is reported as “Crystalline mono-”.
